These results are taken from US6528494B2 (priority 1996, dated 2003).

Where a name gives a salt, the structure may show the parent alone.

Holding throughout (assay type): cell-based
In one assay the target is adenosine 2a receptor (Homo sapiens, UniProt P29274). The assay can be described thus: Agonist activity against adenosine 2a receptor (CHO cells, cAMP/SPAP reporter). To be noted: CHO cells transfected with human receptor; basal cAMP via SPAP; mean of all the versions tested. The protocol:
(§1) (1) Agonist activity against adenosine 2a, adenosine 1 and adenosine 3 receptor subtypes.
(§2) The effect of test compounds was determined by their effects on basal levels of cAMP (A2a) or on forskolin-enhanced cAMP (A1 and A3) as reflected by changes in levels of SPAP.

The target of the next assay is T1, adenosine 1 receptor (Homo sapiens, UniProt P30542).
T1 sequence (P30542 1-326): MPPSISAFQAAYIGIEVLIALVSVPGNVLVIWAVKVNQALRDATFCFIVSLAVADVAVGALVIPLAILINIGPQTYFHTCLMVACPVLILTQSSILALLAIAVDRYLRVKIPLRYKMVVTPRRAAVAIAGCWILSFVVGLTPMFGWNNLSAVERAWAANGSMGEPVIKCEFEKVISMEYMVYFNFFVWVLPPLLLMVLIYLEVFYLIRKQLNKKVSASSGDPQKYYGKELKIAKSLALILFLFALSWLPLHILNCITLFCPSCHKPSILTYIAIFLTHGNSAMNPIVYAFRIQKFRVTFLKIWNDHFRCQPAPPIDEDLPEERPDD
The assay can be described thus: Agonist activity against adenosine 1 receptor (CHO cells, forskolin-enhanced cAMP/SPAP reporter). The following applies: CHO cells transfected with human receptor; forskolin-enhanced cAMP via SPAP; mean of all the versions tested. On the procedure: as §1, §2

The target of the next assay is T2, adenosine 3 receptor (Homo sapiens, UniProt P0DMS8).
T2 sequence (P0DMS8 1-318): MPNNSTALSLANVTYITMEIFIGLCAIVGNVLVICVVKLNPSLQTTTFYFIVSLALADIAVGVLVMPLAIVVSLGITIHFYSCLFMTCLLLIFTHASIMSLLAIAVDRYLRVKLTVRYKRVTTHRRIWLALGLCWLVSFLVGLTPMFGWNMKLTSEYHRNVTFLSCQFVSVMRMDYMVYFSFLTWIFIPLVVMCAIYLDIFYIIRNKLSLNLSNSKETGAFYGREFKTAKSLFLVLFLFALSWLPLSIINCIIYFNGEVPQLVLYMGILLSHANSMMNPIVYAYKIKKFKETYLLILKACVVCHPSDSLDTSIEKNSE
Description: Agonist activity against adenosine 3 receptor (CHO cells, forskolin-enhanced cAMP/SPAP reporter). To be noted: CHO cells transfected with human receptor; forskolin-enhanced cAMP via SPAP; mean of all the versions tested. The protocol:
as §1, §2

Sequence of adenosine 2a receptor (P29274 whole entry): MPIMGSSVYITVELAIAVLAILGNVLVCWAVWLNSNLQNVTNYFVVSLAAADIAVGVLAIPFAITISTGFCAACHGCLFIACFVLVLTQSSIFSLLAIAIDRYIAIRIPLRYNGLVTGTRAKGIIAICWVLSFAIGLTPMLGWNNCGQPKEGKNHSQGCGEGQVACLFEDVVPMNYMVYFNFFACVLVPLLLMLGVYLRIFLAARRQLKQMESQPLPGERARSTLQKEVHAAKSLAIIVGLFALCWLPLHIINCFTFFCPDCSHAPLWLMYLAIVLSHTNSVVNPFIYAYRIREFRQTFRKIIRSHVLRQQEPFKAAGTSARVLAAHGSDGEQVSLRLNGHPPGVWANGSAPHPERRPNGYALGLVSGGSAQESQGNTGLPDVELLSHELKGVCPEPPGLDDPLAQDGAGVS

For `Cn1nnc(C2OC(n3cnc4c(NC5CCCC5)nc(NC(CO)Cc5ccccc5)nc43)C(O)C2O)n1` [Example 36, (2R,3R,4S,5R)-2-[6-Cyclopentylamino-2-(1S-hydroxymethyl-2-phenyl-ethylamino)-purin-9-yl]-5-(2-methyl-2H-tetrazol-5-yl)-tetrahydro-furan-3,4-diol Formate], the “A2a EC50 as a ratio of that of NECA” value at adenosine 2a receptor is listed as 0.99. The “A1 EC50 as a ratio of that of NECA” value at adenosine 1 receptor turned out to be 1.9. In addition, the “A3 EC50 as a ratio of that of NECA” value at adenosine 3 receptor is greater than 315.
For `Cn1nnc(C2OC(n3cnc4c(N)nc(NC(CO)Cc5ccccc5)nc43)C(O)C2O)n1` [Example 37, (2R,3R,4S,5R)-2-[6-Amino-2-(1S-hydroxymethyl-2-phenyl-ethylamino)-purin-9-yl]-5-(2-methyl-2H-tetrazol-5-yl)-tetrahydro-furan-3,4-diol Formate], in that order: 0.52, 119.1 and greater than 348.
The corresponding values for `COc1ccc(CCNc2nc(N)c3ncn([C@@H]4O[C@H](c5nnn(C)n5)[C@@H](O)[C@H]4O)c3n2)cc1OC.O=CO` [Example 38, (2R,3R,4S,5R)-2-{6-Amino-2-[2-(3,4-dimethoxy-phenyl)-ethylamino]-purin-9-yl}-5-(2-methyl-2H-tetrazol-5-yl)-tetrahydro-furan-3,4-diol Formate] are 0.13, 946 and greater than 315.
In the case of `Cn1nnc([C@H]2O[C@@H](n3cnc4c(N)nc(NC5CC6CCC5C6)nc43)[C@H](O)[C@@H]2O)n1.O=CO` (stereo partly drawn) [Example 39, (2R,3R,4S,5R)-2-[6-Amino-2-(bicyclo[2.2.1]hept-2-ylamino)-purin-9-yl]-5-(2-methyl-2H-tetrazol-5-yl)-tetrahydro-furan-3,4-diol Formate], at adenosine 2a receptor, the “A2a EC50 as a ratio of that of NECA” value stood at 0.31. Moreover, the “A1 EC50 as a ratio of that of NECA” value at adenosine 1 receptor is recorded as 1429. Further, the “A3 EC50 as a ratio of that of NECA” value at adenosine 3 receptor was greater than 315.
For `CC(C)n1nnc(C2OC(n3cnc4c(NC(CO)Cc5ccccc5)nc(NCCc5cn(C)cn5)nc43)C(O)C2O)n1` [Example 40, (2R,3R,4S,5R)-2-{6-(1S-Hydroxymethyl-2-phenyl-ethylamino)-2-[2-(1-methyl-1H-imidazol-4-yl)-ethylamino]-purin-9-yl}-5-(2-isopropyl-2H-tetrazol-5-yl)-tetrahydro-furan-3,4-diol Formate], in that order: 0.31, 22.1 and greater than 232.
The corresponding values for `CC(C)n1nnc([C@H]2O[C@@H](n3cnc4c(NC5CCCC5)nc(NCCc5cn(C)cn5)nc43)[C@H](O)[C@@H]2O)n1.O=CO` [Example 41, (2R,3R,4S,5R)-2-{6-Cyclopentylamino-2-[2-(1-methyl-1H-imidazol-4-yl)-ethylamino]-purin-9-yl}-5-(2-isopropyl-2H-tetrazol-5-yl)-tetrahydro-furan-3,4-diol Formate] are 0.73, 28.9 and greater than 232.
For `COc1ccc(CCNc2nc(N)c3ncn([C@@H]4O[C@H](c5nnn(C(C)C)n5)[C@@H](O)[C@H]4O)c3n2)cc1OC.O=CO` [Example 42, (2R,3R,4S,5R)-2-{6-Amino-2-[2-(3,4-dimethoxy-phenyl)-ethylamino]-purin-9-yl}-5-(2-isopropyl-2H-tetrazol-5-yl)-tetrahydro-furan-3,4-diol Formate], in that order: 0.63, 414.9 and greater than 413.
In the case of `CCn1nnc([C@H]2O[C@@H](n3cnc4c(NCC(c5ccccc5)c5ccccc5)nc(NCCN5CCCC5)nc43)[C@H](O)[C@@H]2O)n1.O=C(O)C(F)(F)F.O=C(O)C(F)(F)F.O=C(O)C(F)(F)F` [Example 43, (2R,3R,4S,5R)-2-[6-(2,2-Diphenyl-ethylamino)-2-(2-pyrrolidin-1-yl-ethylamino)-purin-9-yl]-5-(2-ethyl-2H-tetrazol-5-yl)-tetrahydro-furan-3,4-diol tris(Trifluoroacetate)], the “A2a EC50 as a ratio of that of NECA” value at adenosine 2a receptor worked out at 2.23. Further, the “A1 EC50 as a ratio of that of NECA” value at adenosine 1 receptor came to 71.35. The “A3 EC50 as a ratio of that of NECA” value at adenosine 3 receptor is reported as greater than 546.
For `CCn1nnc([C@H]2O[C@@H](n3cnc4c(NCC(c5ccccc5)c5ccccc5)nc(NCCN5CCOCC5)nc43)[C@H](O)[C@@H]2O)n1.O=C(O)C(F)(F)F.O=C(O)C(F)(F)F.O=C(O)C(F)(F)F` [Example 44, (2R,3R,4S,5R)-2-[6-(2,2-Diphenyl-ethylamino)-2-(2-morpholin-4-yl-ethylamino)-purin-9-yl]-5-(2-ethyl-2H-tetrazol-5-yl)-tetrahydro-furan-3,4-diol tris(Trifluoroacetate)], in that order: 3.25, 44.11 and greater than 546.
For the molecule `CCn1nnc([C@H]2O[C@@H](n3cnc4c(NCC(c5ccccc5)c5ccccc5)nc(NC5CCS(=O)(=O)C5)nc43)[C@H](O)[C@@H]2O)n1.O=C(O)C(F)(F)F.O=C(O)C(F)(F)F` (stereo partly drawn) [Example 45], the “A2a EC50 as a ratio of that of NECA” value on adenosine 2a receptor stood at 2.26. The “A1 EC50 as a ratio of that of NECA” value on adenosine 1 receptor is on record as greater than 1578.00. In addition, the “A3 EC50 as a ratio of that of NECA” value at adenosine 3 receptor is given as greater than 420.
For the molecule `CCn1nnc([C@H]2O[C@@H](n3cnc4c(NCC(c5ccccc5)c5ccccc5)nc(NCCN5CCCCC5)nc43)[C@H](O)[C@@H]2O)n1.O=C(O)C(F)(F)F.O=C(O)C(F)(F)F` [Example 46], the “A2a EC50 as a ratio of that of NECA” value on adenosine 2a receptor is recorded as 1.37. Also, at adenosine 1 receptor, the “A1 EC50 as a ratio of that of NECA” value is 64.00. The “A3 EC50 as a ratio of that of NECA” value at adenosine 3 receptor is given as greater than 216.
For `CCn1nnc([C@H]2O[C@@H](n3cnc4c(NCC(c5ccccc5)c5ccccc5)nc(NCCO)nc43)[C@H](O)[C@@H]2O)n1.O=C(O)C(F)(F)F` [Example 47, (2R,3R,4S,5R)-2-[6-(2,2-Diphenyl-ethylamino)-2-(2-hydroxy-ethylamino)-purin-9-yl]-5-(2-ethyl-2H-tetrazol-5-yl)-tetrahydro-furan-3,4-diol Trifluoroacetate], in that order: 1.06, 27.40 and greater than 216.
The corresponding values for `CCn1nnc([C@H]2O[C@@H](n3cnc4c(NCc5cccc(I)c5)nc(NCCN5CCOCC5)nc43)[C@H](O)[C@@H]2O)n1` [Example 48, (2R,3S,4R,5R)-2-(2-Ethyl-2H-tetrazol-5-yl)-5-[6-(3-iodo-benzylamino)-2-(2-morpholin-4-yl-ethylamino)-purin-9-yl]-tetrahydro-furan-3,4-diol] are 4.12, 102.00 and greater than 181.
The corresponding values for `CCn1nnc([C@H]2O[C@@H](n3cnc4c(NCCc5ccccc5)nc(NCCN5CCOCC5)nc43)[C@H](O)[C@@H]2O)n1` [Example 49, (2R,3S,4R,5R)-2-(2-Ethyl-2H-tetrazol-5-yl)-5-[2-(2-morpholin-4-yl-ethylamino)-6-phenethylamino-purin-9-yl]-tetrahydro-furan-3,4-diol] are 3.28, 158.70 and greater than 214.
In the case of `CC(=O)O.CC(=O)O.CCn1nnc(C2OC(n3cnc4c(NCCN5CCOCC5)nc(NCCc5cn(C)cn5)nc43)C(O)C2O)n1` [Example 50, (2R,3S,4R,5R)-2-(2-Ethyl-2H-tetrazol-5-yl)-5-[2-[2-(1-methyl-1H-imidazol-4-yl)-ethylamino]-6-(2-morpholin-4-yl-ethylamino)-purin-9-yl]-tetrahydro-furan-3,4-diol Diacetate], at adenosine 2a receptor, the “A2a EC50 as a ratio of that of NECA” value was found to be 1.48. At adenosine 1 receptor, the “A1 EC50 as a ratio of that of NECA” value is 2443.00. For the same molecule, the “A3 EC50 as a ratio of that of NECA” value at adenosine 3 receptor is recorded as greater than 86.
For `CC(=O)O.CCn1nnc([C@H]2O[C@@H](n3cnc4c(NCCC(C)(C)C)nc(NCCNc5ccccn5)nc43)[C@H](O)[C@@H]2O)n1` [Example 51, (2R,3R,4S,5R)-2-{6-(3,3-Dimethyl-butylamino)-2-[2-(pyridin-2-ylamino)-ethylamino]-purin-9-yl}-5-(2-ethyl-2H-tetrazol-5-yl)-tetrahydro-furan-3,4-diol Acetate], in that order: 1.46, 144.00 and greater than 42.
